Measured values as given in patent publication US12173018B2, “Penicillin-binding protein inhibitors” (priority 2018, dated 2024).
Values after ≈ are worked out from the molar mass of the structure shown. Structures can show the parent of a compound that is named as a salt. Where two headings read alike, the source gives them in different places.

Columns and labels:
[1] = test system: engineered strain of Escherichia coli harboring CTX-M15; test: microbe, parasite or virus in culture; format: cell-based; details: Escherichia coli, read-out: Microbiological Activity (MIC in mg/L), E. coli DH5α/pLBII-CTX-M15, engineered strain producing CTX-M15
[2] = test system: E. coli DH5α empty pLBII vector control strain; test: microbe, parasite or virus in culture; format: cell-based, Escherichia coli; details: Escherichia coli, read-out: Microbiological Activity (MIC in mg/L), E. coli DH5α/pLBII
Protocol: (§1) Briefly, cryo-preserved bacterial cultures of challenge strains are streaked for isolation on appropriate agar medium, in this case Mueller Hinton II agar. Following incubation to allow growth of the colonies, plates are sealed with parafilm and stored refrigerated for up to two weeks. For preparation of assay inoculum and to ensure low variability, at least 5 colonies are picked from the agar plates with an inoculating loop and aseptically transferred to a culture tube containing 3 mL of Mueller-Hinton Broth (supplemented with divalent cations to required levels based on Manufacturers' certification). The broth culture is grown for 3-5 hours at 37° C. with shaking at 200 rpm. Meanwhile, 2-fold serial dilutions of test compounds are conducted in a 96 well plate with a final volume of 75 μL per well at 2-fold the final desired concentration. After the dilution plates are set up the growing cultures are then diluted in a cuvette containing MH II broth and the optical density is measured at 600 nm. The Inoculum is diluted such that 75 μL of this culture in Mueller-Hinton Broth results in a starting bacterial concentration of 5×10^5 CFU/mL when added to the dilution plates. The plates are incubated for 16-20 hours at 37° C. The MIC values are read visually as the lowest concentration well with no bacterial growth.
To determine if test compounds were affected by CTX-M15, the most abundant extended spectrum […] in clinical settings worldwide, the inhibition of the growth of an engineered strain of Escherichia coli harboring CTX-M15 was tested. This strain was constructed by cloning the gene encoding CTX-M15 into the NdeI and BamHI restriction endonuclease sites of plasmid pLBII, placing the gene(s) under the control of the Lac promoter. The constructed expression plasmid for CTX-M15 was used to transform competent E. coli DH5α cells to make the engineered strain, including an empty pLBII vector control strain. The classic cell based broth microdilution MIC assay was employed as described above with the addition of control antibiotics, known to be degraded by β-lactamases (Ceftazidime, piperacillin and piperacillin+tazobactam).

E. coli ATCC 25922 = test: Broth microdilution MIC, E. coli ATCC 25922; format: cell-based; details: Escherichia coli
Outline: (§2)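 Strains are tested by standard CLSI broth microdilution. Log-phase cells, diluted by OD600 to 5×10^5 CFU/mL, meet 2-fold compound series and incubate 16-20 hours at 37° C before the lowest growth-free concentration is recorded.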

E. coli AG100 = test: Broth microdilution MIC, E. coli AG100 (wild-type parent); format: cell-based; details: Escherichia coli; wild-type parent E. coli AG100, broth microdilution; read-out: MIC E. coli AG100
Outline: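 Starting inoculum of 5×10^5 CFU/mL, from colonies grown 3-5 h in Mueller-Hinton broth with divalent cations, added to two-fold compound dilution series.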

E. coli 901C = test: microbe, parasite or virus in culture; format: cell-based; details: Escherichia coli; hyper-permeable E. coli 901C, broth microdilution; read-out: MIC E. coli 901C
Outline: as §2

E. coli AG100A = test: microbe, parasite or virus in culture; format: cell-based; details: Escherichia coli, read-out: MIC E. coli AG100A
Outline: as §2

E. coli D22 = test: microbe, parasite or virus in culture; format: cell-based; details: Escherichia coli; hyper-permeable E. coli D22, broth microdilution; read-out: MIC E. coli D22
Outline: as §2

K. pneumoniae SI-117 = test: microbe, parasite or virus in culture; format: cell-based; details: Klebsiella pneumoniae, SI117, read-out: MIC K. pneumoniae SI-117
Outline: as §2

K. pneumoniae UMM = test: microbe, parasite or virus in culture; format: cell-based; details: Klebsiella pneumoniae; K. pneumoniae UMM producing SHV-5 and KPC-2; read-out: MIC K. pneumoniae UMM
Outline: as §2

[3] = test system: P. aeruginosa (ΔmexAB-oprM); test: microbe, parasite or virus in culture; format: cell-based; details: Pseudomonas aeruginosa, read-out: MIC P. aeruginosa ΔmexAB-OprM
Outline: as §2

P. aeruginosa ATCC 35151 = test: microbe, parasite or virus in culture; format: cell-based; details: Pseudomonas aeruginosa, ATCC35151; hyper-permeable P. aeruginosa ATCC 35151; read-out: MIC P. aeruginosa ATCC 35151
Outline: as §2

K. pneumoniae 848844 = test: microbe, parasite or virus in culture; format: cell-based, Klebsiella pneumoniae; details: Klebsiella pneumoniae; K. pneumoniae 848844 producing SHV-11 and KPC-2; read-out: MIC K. pneumoniae 848844
Outline: as §2

P. aeruginosa PAO1 = test: Broth microdilution MIC, P. aeruginosa PAO1; format: cell-based; details: Pseudomonas aeruginosa
Protocol: (§3) To determine the ability of test compounds to potentiate the inhibition of the growth of bacterial strains, classic cell based broth microdilution minimum inhibitory concentration (MIC) assays were employed. MIC assays are performed according to CLSI methods except where otherwise noted (CLSI, 2011 and CLSI, 2009). The reference type strain E. coli ATCC 25922, the wild-type parent strain E. coli AG100, the hyper-permeable E. coli 901C and E. coli D22 and the E. coli AG100A strain lacking the acrAB efflux pump encoding genes were used to determine the ability of the PBP inhibitors to penetrate the outer membrane of gram-negative bacteria and inhibit bacterial growth. […] The P. aeruginosa PAO1, P. aeruginosa ATCC 27853 and A. baumannii ATCC 19606, along with the hyper-permeable P. aeruginosa ATCC 35151 and an engineered efflux pump-compromised strain of P. aeruginosa (ΔmexAB-oprM) were used to determine the ability of PBP inhibitors to penetrate the outer membrane of P. aeruginosa and A. baumannii and assess antibacterial activity against these important gram-negative organisms.
as §1

A. baumannii ATCC 19606 = test: Broth microdilution MIC, A. baumannii ATCC 19606; format: cell-based; details: Acinetobacter baumannii
Protocol: as §3, §1

[4] = test system: N. gonorrhoeae ATCC 49226; test: Liquid broth MIC, N. gonorrhoeae ATCC 49226; format: cell-based; details: Neisseria gonorrhoeae, ATCC49226; N. gonorrhoeae ATCC 49226, liquid broth; read-out: Minimum Inhibitory Concentration, N. gonorrhoeae ATCC 49226
Outline: (§4)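 Growth inhibition was scored by eye as the lowest compound concentration free of bacterial growth. Cultures from Kellogg's-supplemented GC agar, diluted to 5×10^5 CFU/mL, were exposed to serially diluted compound for 40-42 h at 36° C under 5% CO2.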

N. gonorrhoeae FA1090 = test: Liquid broth MIC, N. gonorrhoeae FA1090; format: cell-based; details: Neisseria gonorrhoeae; N. gonorrhoeae FA1090, liquid broth; read-out: Minimum Inhibitory Concentration, N. gonorrhoeae FA1090
Outline: as §4

N. gonorrhoeae WHO F = test: Liquid broth MIC, N. gonorrhoeae WHO F; format: cell-based; details: Neisseria gonorrhoeae; N. gonorrhoeae WHO F, liquid broth; read-out: Minimum Inhibitory Concentration, N. gonorrhoeae WHO F
Outline: as §4

N. gonorrhoeae FA19 = test: Liquid broth MIC, N. gonorrhoeae FA19; format: cell-based; details: Neisseria gonorrhoeae; N. gonorrhoeae FA19, liquid broth; read-out: Minimum Inhibitory Concentration, N. gonorrhoeae FA19
Outline: as §4

[5] = ATCC25922, read-out: MIC E. coli 25922
[6] = PAO1, read-out: MIC P. aeruginosa PAO1
[7] = ATCC19606, read-out: MIC A. baumannii ATCC 19606

SMILES	MIC [1] [mg/L]	MIC [2] [mg/L]	MIC (E. coli AG100) [µg/mL]	MIC (E. coli 901C) [µg/mL]	MIC (E. coli AG100A) [µg/mL]	MIC (E. coli D22) [µg/mL]	MIC (K. pneumoniae SI-117) [µg/mL]	MIC (K. pneumoniae UMM) [µg/mL]	MIC [3] [µg/mL]	MIC (P. aeruginosa ATCC 35151) [µg/mL]	MIC (K. pneumoniae 848844) [µg/mL]	MIC [4] [µg/mL]	MIC (N. gonorrhoeae FA1090) [µg/mL]	MIC (N. gonorrhoeae WHO F) [µg/mL]	MIC (N. gonorrhoeae FA19) [µg/mL]	further results
CCN1CCN(C(=O)NC(C)(CCO)C(=O)N[C@H]2Cc3cccc(C(=O)O)c3OB2O)C(=O)C1=O (stereo partly drawn) [Example 12, (3R)-3-(2-(4-ethyl-2,3-dioxopiperazine-1-carboxamido)-4-hydroxy-2-methylbutanamido)-2-hydroxy-3,4-dihydro-2H-benzo[e][1,2]oxaborinine-8-carboxylic acid]	> 512	> 512	–	–	–	–	–	–	–	–	–	–	–	–	–	–
CCN1CCN(C(=O)N2CC(CN)(C(=O)N[C@H]3Cc4cccc(C(=O)O)c4OB3O)C2)C(=O)C1=O [Example 14, (R)-3-(3-(aminomethyl)-1-(4-ethyl-2,3-dioxopiperazine-1-carbonyl)azetidine-3-carboxamido)-2-hydroxy-3,4-dihydro-2H-benzo[e][1,2]oxaborinine-8-carboxylic acid, trifluoroacetic acid salt]	> 512	> 512	–	–	–	–	–	–	–	–	–	–	–	–	–	–
CCN1CCN(C(=O)NCC(CN)(CO)C(=O)N[C@H]2Cc3cccc(C(=O)O)c3OB2O)C(=O)C1=O (stereo partly drawn) [Example 15, (3R)-3-(3-amino-2-((4-ethyl-2,3-dioxopiperazine-1-carboxamido)methyl)-2-(hydroxymethyl)propanamido)-2-hydroxy-3,4-dihydro-2H-benzo[e][1,2]oxaborinine-8-carboxylic acid, trifluoroacetic acid salt]	> 512	> 512	–	–	–	–	–	–	–	–	–	–	–	–	–	–
CCN1CCN(C(=O)C[C@H](N)C(=O)N[C@H]2Cc3cccc(C(=O)O)c3OB2O)C(=O)C1=O [Example 19, (R)-3-((S)-2-amino-4-(4-ethyl-2,3-dioxopiperazin-1-yl)-4-oxobutanamido)-2-hydroxy-3,4-dihydro-2H-benzo[e][1,2]oxaborinine-8-carboxylic acid]	> 512	> 512	–	–	–	–	–	–	–	–	–	–	–	–	–	–
CCN1CCN(C(=O)N2C[C@H](O)C[C@@H]2C(=O)N[C@H]2Cc3cccc(C(=O)O)c3OB2O)C(=O)C1=O [Example 28, (R)-3-((2R,4R)-1-(4-ethyl-2,3-dioxopiperazine-1-carbonyl)-4-hydroxypyrrolidine-2-carboxamido)-2-hydroxy-3,4-dihydro-2H-benzo[e][1,2]oxaborinine-8-carboxylic acid]	> 512	> 512	–	–	–	–	–	–	–	–	–	–	–	–	–	–
CCN1CCN(C(=O)NCC2(C(=O)N[C@H]3Cc4cccc(C(=O)O)c4OB3O)CNC2)C(=O)C1=O [Example 53, (R)-3-(3-((4-ethyl-2,3-dioxopiperazine-1-carboxamido)methyl)azetidine-3-carboxamido)-2-hydroxy-3,4-dihydro-2H-benzo[e][1,2]oxaborinine-8-carboxylic acid, trifluoroacetic acid salt]	–	> 512	–	–	–	–	–	–	–	–	–	–	–	–	–	–
CS(=O)(=O)N1CCN(C(=O)NC(C(=O)N[C@H]2Cc3cccc(C(=O)O)c3OB2O)c2ccc(O)c(O)c2Cl)C1=O (stereo partly drawn) [Example 58, (3R)-3-(2-(2-chloro-3,4-dihydroxyphenyl)-2-(3-(methylsulfonyl)-2-oxoimidazolidine-1-carboxamido)acetamido)-2-hydroxy-3,4-dihydro-2H-benzo[e][1,2]oxaborinine-8-carboxylic acid]	32 to 64 (≈ 53.6 to 107 µM)	–	32 to 64	2 to 4	8 to 16	8 to 16	> 128	8 to 16	< 0.25	< 0.25	8 to 16	4 to 8 (≈ 6.7 to 13.4 µM)	4 to 8 (≈ 6.7 to 13.4 µM)	1 to 2 (≈ 1.68 to 3.35 µM)	4 to 8 (≈ 6.7 to 13.4 µM)	MIC (E. coli ATCC 25922; [5]): 32 to 64 µg/mL; MIC (P. aeruginosa PAO1; [6]): 8 to 16 µg/mL; MIC (A. baumannii ATCC 19606; [7]): 2 to 4 µg/mL
NS(=O)(=O)c1ccc([C@@H](NC(=O)N2CCN(CCF)C(=O)C2=O)C(=O)N[C@H]2Cc3cccc(C(=O)O)c3OB2O)cc1O [Example 170, (R)-3-((R)-2-(4-(2-fluoroethyl)-2,3-dioxopiperazine-1-carboxamido)-2-(3-hydroxy-4-sulfamoylphenyl)acetamido)-2-hydroxy-3,4-dihydro-2H-benzo[e][1,2]oxaborinine-8-carboxylic acid]	–	–	8 to 16	< 0.25	2 to 4	0.5 to 1	32 to 64	8 to 16	8 to 16	< 0.25	32 to 64	4 to 8 (≈ 6.44 to 12.9 µM)	0.25 to 0.5 (≈ 0.402 to 0.805 µM)	< 0.125	4 to 8 (≈ 6.44 to 12.9 µM)	MIC (E. coli ATCC 25922; [5]): 8 to 16 µg/mL; MIC (P. aeruginosa PAO1; [6]): > 128 µg/mL; MIC (A. baumannii ATCC 19606; [7]): > 128 µg/mL
NCCN1CCN(C(=O)N[C@@H](C(=O)N[C@H]2Cc3cccc(C(=O)O)c3OB2O)c2ccc(O)c(O)c2Cl)C(=O)C1=O [Example 220, (R)-3-((R)-2-(4-(2-aminoethyl)-2,3-dioxopiperazine-1-carboxamido)-2-(2-chloro-3,4-dihydroxyphenyl)acetamido)-2-hydroxy-3,4-dihydro-2H-benzo[e][1,2]oxaborinine-8-carboxylic acid]	–	–	0.5 to 1	0.5 to 1	0.5 to 1	0.5 to 1	2 to 4	0.5 to 1	< 0.25	< 0.25	0.5 to 1	16 to 32 (≈ 27.1 to 54.3 µM)	4 to 8 (≈ 6.78 to 13.6 µM)	1 to 2 (≈ 1.7 to 3.39 µM)	> 64	MIC (E. coli ATCC 25922; ATCC25922, E. coli ATCC 25922, broth microdilution, read-out: MIC E. coli 25922): 8 to 16 µg/mL; MIC (P. aeruginosa PAO1; P. aeruginosa PAO1, broth microdilution, read-out: MIC P. aeruginosa PAO1): 0.5 to 1 µg/mL; MIC (A. baumannii ATCC 19606; ATCC19606, A. baumannii ATCC 19606, broth microdilution, read-out: MIC A. baumannii ATCC 19606): < 0.25 µg/mL
